Here are results for 3 compounds from ChEMBL document CHEMBL1153788, “Bioactive diterpene derivatives from the marine sponge Spongionella sp” (J Nat Prod, 2009).

Broadly, the IC50 is the concentration that inhibits the measured activity by half.

One assay has as its system K562. As to the kind of experiment: Cytotoxicity against human K562 cells assessed as decrease in luminescence after 24 hrs by luminescent cell viability assay. Type of assay: functional, cell-based. The following applies: K562, 24 h.
A further assay relates to PBMC. As to the kind of experiment: Cytotoxicity against human PBMC cells assessed as decrease in luminescence after 24 hrs by luminescent cell viability assay. Type of assay: cell-based.

Take `CC(=O)O[C@@H]1O[C@H]2OC(=O)[C@H](C)C3=C([C@@]4(C)CCCC(C)(C)C4)CC[C@@H]1[C@H]32`: the concentration for half-maximal inhibition (IC50) with K562 was 2.3 µM; in the assay with PBMC, 4.5 µM.
For `CC(=O)O[C@H]1O[C@H]2O[C@H]3OC(=O)/C(=C\CC4(OC(C)=O)CCCC(C)(C)C4)[C@H]3[C@H]2[C@@H]1OC(C)=O` (stereo partly specified) [GRACILIN J], in that order: 15 µM and 30 µM.
For `CC(=O)O[C@H]1O[C@H]2O[C@H]3OC(=O)/C(=C\C4CCCC(C)(C)C4)[C@H]3[C@H]2[C@@H]1OC(C)=O` (stereo partly specified) [GRACILIN K], in that order: 8.5 µM and 9 µM.
